Test results: US20090088449A1, “4-ACYLAMINOPYRIDINE DERIVATIVE MEDIATED NEUROGENESIS” (MITSUBISHI TANABE PHARMA CORPORATION, priority 2006, published 2009)

What was measured:
Human Neural Stem Cells [1] = experiment: MKC-231 in combination with an AMPA agonist, neuronal differentiation of human neural stem cells; format: cell-based; details: for EC50: Homo sapiens, Neural stem cell
Procedure: FIG. 4 is a dose-response curve showing enhancement of the effects of the agent MKC-231 on neuronal differentiation by combination with an AMPA agonist (AMPA). Data is presented as the percentage of the neuronal positive control, with basal media values subtracted.
FIG. 6 is the average does response curve of multiple experiments (N=6) showing enhancement of the effects of the agent MKC-231 on neuronal differentiation by combination with affixed concentration of AMPA agonist (0.32 μM AMPA). […] Data is presented as the percentage of the neuronal positive control, with basal media values subtracted.
Experiments with various concentrations of MKC-231 alone or with 0.316 μM of an AMPA agonist (AMPA) were carried out generally as described in Example 1 for neuronal differentiation. […] The data also indicate that MKC-231 apparently exerts some of its neurogenic effect as an AMPA potentiator or sensitizer. Also see FIG. 6 relating to BCI-540 in combination with AMPA and neuronal differentiation.

[2] = molecular target: acetylcholinesterase (AChE) (Homo sapiens, UniProt P22303); details: cited from earlier work
Human Neural Stem Cells [3] = experiment: MKC-231 in combination with an AMPA antagonist (NBQX), neuronal differentiation of human neural stem cells; format: cell-based
Procedure: FIG. 7 is a dose-response curve showing inhibition of the effects of the agent MKC-231 on neuronal differentiation by combination with an AMPA antagonist (NBQX). Data is presented as the percentage of the neuronal positive control, with basal media values subtracted.
Experiments with various concentrations of MKC-231 alone or with 1.0 μM of an AMPA antagonist (NBQX) were carried out generally as described in Example 1 for neuronal differentiation. […] The data also indicate that MKC-231 exerts some of its neurogenic effect as through the AMPA receptor activation.

male F344 rats [4] = experiment: Hippocampal neurogenesis in rat (BrdU); format: in vivo
Procedure: BCI-540 was administered to male F344 rats by oral gavage once daily for 28 days (1.0 and 4.0 mg/kg/day, p.o.). BrdU was administered once daily for 5 days (days 9 to 14, 100 mg/kg/day, i.p.). Animals were sacrificed on day 28. Brains were removed and processed for evaluation of neurogenesis.
The y-axis represents percent change compared to vehicle control. The x-axis indicates treatment with vehicle set to 100% (black bar) and BCI-540 dosed at 1.0 and 4.0 mg/kg/day (black hatched bars). The black line indicates 100% of vehicle control.

male Sprague Dawley rats = experiment: Elevated plus maze (animal model of anxiety); format: in vivo, rat
Procedure: BCI-540 was administered to male Sprague Dawley rats by oral gavage once daily for 21 days (1.0 mg/kg/day, p.o.). As a positive control, the anxiolytic diazepam (1.5 mg/kg, i.p.) was administered one time, 30 minutes prior to testing.
The y-axis represents percent time on the open arm. The x-axis indicates treatment with vehicle (black bar), positive control diazepam (gray bar), and BCI-540 treated animals (black hatched bars) (n=15/group).

[5] = tested on: Human neural stem cells (hNSCs); experiment: Neuronal differentiation of human neural stem cells (TUJ-1 staining); format: cell-based
From the text: Human neural stem cells (hNSCs) were isolated and grown in monolayer culture, plated, treated with varying concentrations of MKC-231 (test compound), and stained with TUJ-1 antibody, as described in U.S. Provisional Application No. 60/697,905 (incorporated by reference). Mitogen-free test media with a positive control for neuronal differentiation was used along with basal media without growth factors as a negative control.
The dose response curve of the neuronal positive control is included as a reference. The data is presented as a percent of neuronal positive control.

hNSCs = experiment: Astrocyte differentiation of hNSCs (GFAP staining); format: cell-based, human
Procedure: Experiments were carried out as described in Example 1, except the positive control for astrocyte differentiation contained mitogen-free test media with positive control for astrocyte differentiation, and cells were stained with GFAP antibody.

Human Neural Stem Cells [6] = experiment: Toxic/trophic effect on human neural stem cells (Hoechst 33342 cell count); format: cell-based; details: concentrations up to 31.6 μM
Procedure: Experiments were carried out as described in Example 1, except that the cells were stained with a nuclear dye (Hoechst 33342).
The data therein is shown as a percentage of the basal media cell count. Concentrations that are toxic fall below 80% of the basal cell count. Trophic compounds show dose dependent increases in cell count.

male F344 rats [7] = experiment: Novelty suppressed feeding in rat; format: in vivo; details: for change in latency to eat the food pellet: 21-day administration
Procedure: BCI-540 was administered to male F344 rats by oral gavage once daily for 21 days (1.0 mg/kg/day, p.o.). Fluoxetine was administered by oral gavage once daily for 21 days (10 mg/kg/day, p.o.). BrdU was administered once daily for 5 days (days 9 to 14, 100 mg/kg/day, i.p.). Animals were tested after 21 days of drug administration.
Shown in FIG. 9 is the change in latency to eat compared to vehicle control (±SEM). The y-axis represents percent change compared to vehicle control. The x-axis indicates treatment. Vehicle is set to 100%. The black line indicates 100% of vehicle control.

[8] = cited from earlier work; for stability at room temperature and during storage: room temperature (about 25° C.), over time
[9] = 1.0 mg/kg daily p.o. for 21 days

acetylcholinesterase (AChE), sequence (P22303 32-614, species assumed): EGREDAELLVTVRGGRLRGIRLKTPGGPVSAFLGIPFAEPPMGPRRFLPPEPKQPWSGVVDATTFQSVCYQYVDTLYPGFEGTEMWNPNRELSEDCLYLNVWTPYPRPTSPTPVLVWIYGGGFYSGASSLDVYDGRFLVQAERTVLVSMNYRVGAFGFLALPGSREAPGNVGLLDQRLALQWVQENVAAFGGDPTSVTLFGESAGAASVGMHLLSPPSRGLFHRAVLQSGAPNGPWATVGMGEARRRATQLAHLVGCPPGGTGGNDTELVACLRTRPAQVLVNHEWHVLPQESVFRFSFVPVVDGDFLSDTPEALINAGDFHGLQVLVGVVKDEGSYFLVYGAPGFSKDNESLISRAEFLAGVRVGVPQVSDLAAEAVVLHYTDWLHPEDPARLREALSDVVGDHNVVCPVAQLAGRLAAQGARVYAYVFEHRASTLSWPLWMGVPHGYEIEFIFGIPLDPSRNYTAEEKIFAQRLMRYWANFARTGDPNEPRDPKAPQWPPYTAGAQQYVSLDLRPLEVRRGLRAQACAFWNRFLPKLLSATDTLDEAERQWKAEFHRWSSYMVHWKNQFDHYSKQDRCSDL

Structure (SMILES): Cc1o[nH]c(=O)c1CC(N)C(=O)O (stereo not drawn) [AMPA, reference compound]
- effect of AMPA agonist on MKC-231 stimulated neuronal differentiation (Human Neural Stem Cells [1]; 0.316 μM AMPA): enhances the stimulation of neuronal differentiation
- neuronal differentiation by AMPA alone (Human Neural Stem Cells [1]; 0.32 μM AMPA alone (FIG. 6)): does not promote neuronal differentiation alone

Structure (SMILES): Cc1oc2nc3c(c(NC(=O)CN4CCCC4=O)c2c1C)CCCC3 [MKC-231, 2-(2-oxypyrrolidin-1-yl)-N-(2,3-dimethyl-5,6,7,8-tetrahydrofuro(2,3-b)quinolin-4-yl)acetoamide]
- AChE inhibitory activity [2]: does not have such inhibitory activity
- EC50 (Human Neural Stem Cells [3]; Homo sapiens, Neural stem cell, with 1.0 μM NBQX (FIG. 7)): > 31.6 µM
- increase in new neurons within the granule cell layer of the dentate gyrus compared to vehicle control (male F344 rats [4]; 1.0 mg/kg daily p.o. for 28 days): 22%
- increase in new neurons within the granule cell layer of the dentate gyrus compared to vehicle control (male F344 rats [4]; 4.0 mg/kg daily p.o. for 28 days): 20%
- change in new neurons within the granule cell layer of the dentate gyrus (male F344 rats [4]; 1.0 and 4.0 mg/kg daily for 28 days): statistically significant increase
- EC50 (Human Neural Stem Cells [1]; read-out: EC50 neuronal differentiation, MKC-231 in the presence of a fixed concentration AMPA): 0.22 µM
- EC50 (Human Neural Stem Cells [1]; average of multiple experiments (N=6) (FIG. 6), read-out: EC50 neuronal differentiation, MKC-231 alone): 3.7 µM
- EC50 (Human Neural Stem Cells [1]; with 0.316 μM AMPA agonist (AMPA) (FIG. 4), read-out: EC50 neuronal differentiation, MKC-231 in combination with AMPA): 0.99 µM
- increase in the time spent on the open arms (male Sprague Dawley rats; [9]): 20%
- time spent on the open arms (male Sprague Dawley rats; chronic administration, 1.0 mg/kg/day p.o., 21 days): significant increase
- neuronal differentiation above background levels ([5]; FIG. 1): promoted neuronal differentiation above background levels
- EC50 ([5]; Homo sapiens, Neural stem cell, MKC-231 alone, percent of neuronal positive control, basal media subtracted (FIG. 1)): 5.1 µM
- astrocyte differentiation above basal media values (hNSCs; FIG. 2): no significant increase
- EC50 astrocyte differentiation (hNSCs; percent of astrocyte positive control, basal media subtracted (FIG. 2)): undeterminable
- toxicity (cell count below 80% of basal cell count) (Human Neural Stem Cells [6]): no toxicity
- decrease in latency to eat compared to vehicle control (male F344 rats [7]; [9]): 35%
- change in latency to eat the food pellet (male F344 rats [7]): statistically significant decrease

Structure (SMILES): NS(=O)(=O)c1cccc2c1c([N+](=O)[O-])cc1nc(O)c(O)nc12 [NBQX, reference compound]
- effect of AMPA antagonist on MKC-231 stimulated neuronal differentiation (Human Neural Stem Cells [3]; 1.0 μM NBQX): inhibits the stimulation of neuronal differentiation

Structure (SMILES): CN1C(=O)CN=C(c2ccccc2)c2cc(Cl)ccc21 [diazepam, reference compound]
- increase in time spent on the open arms (male Sprague Dawley rats; single administration, 1.5 mg/kg i.p., 30 minutes prior to testing): 12%

Structure (SMILES): CNCCC(Oc1ccc(C(F)(F)F)cc1)c1ccccc1 (stereo not drawn) [fluoxetine, reference compound]
- decrease in latency to eat compared to vehicle control (male F344 rats [7]; 10.0 mg/kg daily p.o. for 21 days): 38%
- change in latency to eat the food pellet (male F344 rats [7]): statistically significant decrease

Structure (SMILES): Cc1oc2nc3c(c(NC(=O)CC4CNC(=O)C4)c2c1C)CCCC3 (stereo not drawn) [form A crystal, N-(2,3-dimethyl-5,6,7,8-tetrahydrofuro[2,3-b]quinolin-4-yl)-2-(2-oxopyrrolidin-4-yl)acetamide]
- stability at room temperature and during storage [8]: better stability
- stability in storage [8]: greater stability in storage than the form B crystal

Structure (SMILES): Cc1oc2nc3c(c(NC(=O)CC4CNC(=O)C4)c2c1C)CCCC3 (stereo not drawn) [form B crystal, N-(2,3-dimethyl-5,6,7,8-tetrahydrofuro[2,3-b]quinolin-4-yl)-2-(2-oxopyrrolidin-4-yl)acetamide]
- stability at room temperature and during storage [8]: lower stability
- stability in storage [8]: lower stability in storage than the form A crystal
